Data taken from US20040009485A1, “Cellular arrays for the identification of altered gene expression” (priority 2002, published 2004).

Tested on: luxCDABE gene fusions in lexAind host
Assay: Mitomycin C and nalidixic acid responses in lexAind host
Format: cell-based, E. coli
Conditions: for NA Ratio, 2 hr 10 ug/ml: lexAind host
Protocol: In addition, the effect of a lexAind mutation was tested to determine if any of these were part of the SOS regulon. The expectation is that SOS regulon member will be induced by both nalidixic acid and mitomycin C in a manner that is dependent on lexA function (Walker, G. C., (1996) Escherichia coli and Salmonella: Cellular and Molecular Biology ASM Press). […] This is consistent with the observation of upregulation of the b1728 mRNA transcript upon mitomycin C treatment in a LexA dependent fashion (Fernández de Henestrosa et al. (2000). Mol. Microbiol. 35:1560-1572). Likewise, two Gene fusions, those to oraA and yigN were identified is new members of the SOS regulon (Table 16). […] Negative, non-DNA damage responsive gene fusions were also included (Table 16).

## CCn1cc(C(=O)O)c(=O)c2ccc(C)nc21 [Nalidixic acid, nalidixic acid]
1pxA 1pxB rnhB dnaE fusion (lux-a.pk061.c3)
  NA Ratio, 2 hr 10 ug/ml: 2.39
b1728 fusion (lux-a.pk033.c5)
  NA Ratio, 2 hr 10 ug/ml: 0.40
b1936 fusion (lux-a.pk0019.g1)
  NA Ratio, 2 hr 10 ug/ml: 1.55
dinG ybiB fusion (lux-a.pk0024.f5)
  NA Ratio, 2 hr 10 ug/ml: 0.97
Fusion (lux-a.pk0015.d6)
  NA Ratio, 2 hr 10 ug/ml: 2.29
lacZ fusion (65.d4), negative control
  NA Ratio, 2 hr 10 ug/ml: 1.05
lexAind host strain (FIG. 9)
  induction of b1728 promoter-luxCDABE fusion: not induced
oraA fusion (lux-a.pk058.f5)
  NA Ratio, 2 hr 10 ug/ml: 1.06
yaaF fusion (lux-a.pk031.e7)
  NA Ratio, 2 hr 10 ug/ml: 1.19
yciG fusion (lux-a.pk006.b4), negative control
  NA Ratio, 2 hr 10 ug/ml: 0.67
yigN fusion (lux-a.pk046.f11)
  NA Ratio, 2 hr 10 ug/ml: 0.59
